{
  "source": "paper PMC11664502",
  "about": "“Parahydrogen Polarization in Reverse Micelles and Application to Sensing of Protein–Ligand Binding” (Journal of the American Chemical Society, 2024)",
  "molecular_target": "T1, thiaminase II (TenA) (Bacillus subtilis, UniProt P25052)",
  "T1 sequence (P25052 1-236)": "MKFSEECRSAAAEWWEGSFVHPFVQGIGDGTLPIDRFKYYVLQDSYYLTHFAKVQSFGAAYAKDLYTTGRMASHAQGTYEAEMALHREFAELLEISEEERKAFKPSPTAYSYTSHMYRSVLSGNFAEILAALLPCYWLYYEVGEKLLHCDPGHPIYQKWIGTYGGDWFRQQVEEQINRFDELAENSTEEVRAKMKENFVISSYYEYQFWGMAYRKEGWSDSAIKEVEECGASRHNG",
  "assay": "nhPHIP hyperpolarized NMR of iridium hydride signals in reverse micelles; agrees with a titration of TenA with ABAP (KD […])",
  "format": "binding",
  "data": [
    {"molecule": "Nc1ccnc(NCc2ccccc2)n1", "note": "[L, 4-amino-2-benzylaminopyrimidine]", "values": [
      {"measurement": "Kd", "value": "39.7 ± 8.9", "unit": "µM"}
    ]}
  ]
}
